Measurements as given in US20140220680A1, “XENO-FREE AND A FEEDER FREE SELF-RENEWAL EXTRACELLULAR MATRIX FOR LONG-TERM MAINTENANCE OF UNDIFFERENTIATED HUMAN PLURIPOTENT STEM CELLS AND METHOD OF SYNTHESIZING THE SAME” (ROYAN RESEARCH, priority 2013, published 2014).

Key:
[1] = target: Rho-associated Coiled Kinase (ROCK); conditions: stated with the concentration used; no test described; cited from earlier work
Royan H5 hESCs = test: Plating efficiency (PE) of hESC clumps on coated plates, day 7; type: cell-based, human
Procedure: The Matrigel (MG) was used as a positive control in all experiments. In the first phase, with respect to table 1, the Royan H5 cell line was cultured in CM coated plates (six-well, TPP, 92006). The CM was prepared by either 24 h or 72 h incubation of neurobasal medium (Invitrogen, 21103049) supplemented with L-Gln, β-ME, NEAAs and ITS on human dermal fibroblast (HDFs) feeder layers. The HDFs were inactivated by mitomycin C for 2 h. The mitomycin C was used with a concentration of 10 μg/ml (Sigma-Aldrich, M0503). The feeder cells were cultured at high densities and at low densities in 25 cm^2 T flasks (TPP, 90025) in 4 ml of conditioned medium (160 μl/cm^2). The high density comprised of 50000 cells/cm^2 and the low density comprised of 5000 cells/cm^2. The plates were exposed to CM for either 5 min or 150 min while coating. […]
The plating efficiency (PE) and grading morphology were conducted in nine replications. […] Results were expressed as mean±standard deviation (SD). […] The PE (based on the ratio of undifferentiated […] colonies formed per initially seeded hESCs and hiPSCs clumps) was calculated under phase contrast inverted microscope (CKX 41, Olympus). The cloning efficiency (based on the ratio of ALP-positive colonies formed per initially seeded hESCs and hiPSCs single cells) was calculated by ImageJ software version 1.4. […]

Y-27632 dihydrochloride monohydrate
EC50 [1]: 800 nM | plating efficiency increase (Royan H5 hESCs; ROCK inhibitor in MG compared to ROCK inhibitor in culture medium only): 1.5 to 2 fold | plating and cloning efficiency (Royan H5 hESCs; ROCKi added to ECM (MG) vs added to medium): increased plating and cloning efficiency
